US9133148B2, “Carbamate compounds and of making and using same” (Abide Therapeutics, Inc., priority 2012, dated 2015)

Tests used:
Assay type in all cases: biochemical
Human MAGL = Human MAGL (Homo sapiens (Human), UniProt Q99685); assay: Competitive ABPP with recombinant human MAGL expressed in HEK293T cells; conditions: hMAGL in HEK293T cell lysates
Description: (§1) Proteomes (mouse brain membrane fraction or cell lysates) ([…], 1.0 mg/mL total protein concentration) were preincubated with varying concentrations of inhibitors at 37° C. After 30 min, FP-Rh (1.0 μL, 50 μM in DMSO) was added and the mixture was incubated for another 30 min at 37° C. Reactions were quenched with SDS loading buffer (50 μL—4×) and run on SDS-PAGE.
Recombinant Expression of Human MAGL in HEK293T Cells.
Cell lysates were diluted with mock proteomes for use in competitive ABPP experiments.

ABHD6 [1] = molecular target: T1, ABHD6 (Mus musculus (Mouse), UniProt Q8R2Y0); assay: In vitro competitive activity-based protein profiling (FP-Rh), mouse ABHD6; conditions: mouse brain membrane proteome, competitive ABPP
T1 sequence (Q8R2Y0 whole entry): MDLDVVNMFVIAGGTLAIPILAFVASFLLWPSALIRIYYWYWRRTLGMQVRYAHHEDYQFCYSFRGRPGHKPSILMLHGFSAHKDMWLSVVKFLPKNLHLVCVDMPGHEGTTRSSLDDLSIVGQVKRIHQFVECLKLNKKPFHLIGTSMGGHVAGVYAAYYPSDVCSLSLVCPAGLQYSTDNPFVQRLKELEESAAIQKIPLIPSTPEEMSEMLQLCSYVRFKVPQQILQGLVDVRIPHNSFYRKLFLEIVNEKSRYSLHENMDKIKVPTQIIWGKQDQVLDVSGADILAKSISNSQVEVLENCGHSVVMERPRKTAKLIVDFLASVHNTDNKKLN
Description: (§2) In Vitro Competitive Activity-Based Protein Profiling.
as §1

MAGL [2] = molecular target: T2, MAGL (Mus musculus (Mouse), UniProt O35678); assay: In vitro competitive activity-based protein profiling (FP-Rh), mouse MAGL; conditions: mouse brain membrane proteome, competitive ABPP
T2 sequence (O35678 whole entry): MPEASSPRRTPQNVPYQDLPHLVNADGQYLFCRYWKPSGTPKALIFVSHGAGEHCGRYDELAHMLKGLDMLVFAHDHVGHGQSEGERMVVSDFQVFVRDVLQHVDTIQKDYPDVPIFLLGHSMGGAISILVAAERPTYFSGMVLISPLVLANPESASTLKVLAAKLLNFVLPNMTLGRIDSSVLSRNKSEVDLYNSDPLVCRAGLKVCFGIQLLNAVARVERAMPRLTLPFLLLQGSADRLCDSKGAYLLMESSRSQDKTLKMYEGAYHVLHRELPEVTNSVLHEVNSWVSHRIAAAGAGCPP
Description: as §2, §1

FAAH [3] = molecular target: T3, FAAH (Mus musculus (Mouse), UniProt O08914); assay: In vitro competitive activity-based protein profiling (FP-Rh), mouse FAAH; conditions: mouse brain membrane proteome, competitive ABPP
T3 sequence (O08914 whole entry): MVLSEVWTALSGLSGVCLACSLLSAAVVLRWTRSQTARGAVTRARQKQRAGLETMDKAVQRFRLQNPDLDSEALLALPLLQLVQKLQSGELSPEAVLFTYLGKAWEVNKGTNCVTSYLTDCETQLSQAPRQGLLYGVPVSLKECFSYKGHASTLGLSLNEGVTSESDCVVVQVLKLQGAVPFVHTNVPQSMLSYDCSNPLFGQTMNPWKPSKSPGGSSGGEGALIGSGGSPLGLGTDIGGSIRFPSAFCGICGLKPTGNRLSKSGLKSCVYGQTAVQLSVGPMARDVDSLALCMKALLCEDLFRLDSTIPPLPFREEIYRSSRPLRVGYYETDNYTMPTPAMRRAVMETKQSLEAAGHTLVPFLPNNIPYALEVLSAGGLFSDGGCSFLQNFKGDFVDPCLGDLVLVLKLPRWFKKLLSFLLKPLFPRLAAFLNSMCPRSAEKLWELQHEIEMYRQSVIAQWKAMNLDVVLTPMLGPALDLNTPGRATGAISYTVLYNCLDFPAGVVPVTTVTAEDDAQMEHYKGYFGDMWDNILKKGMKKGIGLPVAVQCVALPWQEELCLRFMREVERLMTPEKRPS
Description: as §2, §1

ABHD6 [4] = molecular target: T1, ABHD6; assay: Competitive ABPP, % inhibition at 1 uM, ABHD6
Description: as §2, §1

FAAH [5] = molecular target: T3, FAAH; assay: Competitive ABPP, % inhibition at 1 uM, FAAH
Description: as §2
as §1, with “SDS-PAGE. Following gel imaging, serine hydrolase activity was determined by measuring fluorescent intensity of gel bands corresponding to MAGL, ABHD6 and FAAH using ImageJ 1.43u software.” for “SDS-PAGE.”

MAGL [6] = molecular target: T2, MAGL; assay: Competitive ABPP, % inhibition at 1 uM, MAGL
Description: as §2, §1

Sequence of Human MAGL (Q99685 whole entry): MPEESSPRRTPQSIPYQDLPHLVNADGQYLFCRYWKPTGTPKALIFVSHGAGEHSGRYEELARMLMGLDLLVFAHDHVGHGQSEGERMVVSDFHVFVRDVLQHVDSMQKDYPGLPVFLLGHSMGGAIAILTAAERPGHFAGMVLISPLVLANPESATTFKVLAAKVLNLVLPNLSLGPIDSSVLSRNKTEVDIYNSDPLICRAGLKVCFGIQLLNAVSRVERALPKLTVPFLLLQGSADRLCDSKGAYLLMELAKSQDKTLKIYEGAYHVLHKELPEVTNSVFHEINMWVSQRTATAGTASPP

Row | Structure (SMILES) | IC50 (Human MAGL) [nM] | IC50 (ABHD6 [1]) [nM] | IC50 (MAGL [2]) [nM] | IC50 (FAAH [3]) [nM] | inhibition at 1 µM (ABHD6 [4]) [%] | inhibition at 1 µM (FAAH [5]) [%] | inhibition at 1 µM (MAGL [6]) [%]
1 | Cc1cc(N2CCN(C(=O)OC(C(F)(F)F)C(F)(F)F)CC2)c2ccccc2n1 [Example 3h, 1,1,1,3,3,3-hexafluoropropan-2-yl 4-(2-methylquinolin-4-yl)piperazine-1-carboxylate] | < 100 | > 1000 | > 1000 | > 10000 | – | – | –
2 | CC(=O)Nc1ccc(S(=O)(=O)N2CCN(C(=O)OC(C(F)(F)F)C(F)(F)F)CC2)cc1 [Example 4e, 1,1,1,3,3,3-hexafluoropropan-2-yl 4-((4-acetamidophenyl)sulfonyl)-piperazine-1-carboxylate] | > 1000 | > 1000 | > 1000 | > 10000 | – | – | –
3 | O=C(OC(C(F)(F)F)C(F)(F)F)N1CCN(S(=O)(=O)c2ccccc2)CC1 [Example 4a, 1,1,1,3,3,3-hexafluoropropan-2-yl 4-(phenylsulfonyl)piperazine-1-carboxylate] | 100 to 1000 | 100 to 1000 | 100 to 1000 | > 10000 | – | – | –
4 | O=C(OC(C(F)(F)F)C(F)(F)F)N1CCN(C(c2ccc3c(c2)CCO3)c2ccc3c(c2)CCO3)CC1 [Example 2e, 1,1,1,3,3,3-hexafluoropropan-2-yl 4-(bis(2,3-dihydrobenzofuran-5-yl)methyl)piperazine-1-carboxylate] | < 100 | 100 to 1000 | < 100 | > 10000 | – | – | –
5 | COc1ccc(N2CCN(C(=O)OC(C(F)(F)F)C(F)(F)F)CC2)cc1 [Example 3e, 1,1,1,3,3,3-hexafluoropropan-2-yl 4-(4-methoxyphenyl)piperazine-1-carboxylate] | 100 to 1000 | 100 to 1000 | > 1000 | > 10000 | – | – | –
6 | CN(Cc1ccc2c(c1)OCO2)C(=O)OC(C(F)(F)F)C(F)(F)F [Example 3i, 1,1,1,3,3,3-hexafluoropropan-2-yl(benzo[d][1,3]dioxol-5-ylmethyl)-(methyl)carbamate] | 100 to 1000 | > 1000 | 100 to 1000 | > 10000 | – | – | –
7 | O=C(OC(C(F)(F)F)C(F)(F)F)N1CCN(C(c2ccc3c(c2)OC(F)(F)O3)c2ccc3c(c2)OC(F)(F)O3)CC1 [Example 2f, 1,1,1,3,3,3-hexafluoropropan-2-yl 4-(bis(2,2-difluorobenzo[d][1,3]-dioxol-5-yl)methyl)piperazine-1-carboxylate] | < 100 | > 1000 | < 100 | > 10000 | – | – | –
8 | O=C(OC(C(F)(F)F)C(F)(F)F)N1CCN(S(=O)(=O)c2cccc(C(F)(F)F)c2)CC1 [Example 4i, 1,1,1,3,3,3-hexafluoropropan-2-yl 4-((3-(trifluoromethyl)phenyl)-sulfonyl)piperazine-1-carboxylate] | 100 to 1000 | > 1000 | 100 to 1000 | > 10000 | – | – | –
9 | C[C@H]1CN(Cc2ccc(N3CCOCC3)cc2F)CCN1C(=O)OC(C(F)(F)F)C(F)(F)F [Example 9i, 1,1,1,3,3,3-hexafluoropropan-2-yl(2S)-4-[[2-fluoro-4-(morpholin-4-yl)phenyl]methyl]-2-methylpiperazine-1-carboxylate] | – | – | – | – | 25 to 75 | < 25 | 25 to 75
10 | C[C@H]1CN(Cc2ccc(N3CCOCC3)cc2Cl)CCN1C(=O)OC(C(F)(F)F)C(F)(F)F [Example 9al, 1,1,1,3,3,3-hexafluoropropan-2-yl(2S)-4-[[2-chloro-4-(morpholin-4-yl)phenyl]methyl]-2-methylpiperazine-1-carboxylate] | – | – | – | – | 25 to 75 | < 25 | 25 to 75
11 | Cc1cccc(-c2ccc(CN3CCN(C(=O)OC(C(F)(F)F)C(F)(F)F)CC3)c(Oc3ccccc3)c2)c1 [Example 11r, 1,1,1,3,3,3-hexafluoropropan-2-yl 4-[[4-(3-methylphenyl)-2-phenoxyphenyl]methyl]piperazine-1-carboxylate] | – | – | – | – | < 25 | < 25 | 25 to 75
12 | Cc1ccccc1-c1ccc(CN2CCN(C(=O)OC(C(F)(F)F)C(F)(F)F)CC2)c(C)n1 [Example 11b, 1,1,1,3,3,3-hexafluoropropan-2-yl 4-[[2-methyl-6-(2-methylphenyl)pyridin-3-yl]methyl]piperazine-1-carboxylate] | – | – | – | – | 25 to 75 | < 25 | > 75
13 | C[C@H]1CN(Cc2ccc(N3CCOCC3)cc2C(F)(F)F)CCN1C(=O)OC(C(F)(F)F)C(F)(F)F [Example 9j, 1,1,1,3,3,3-hexafluoropropan-2-yl(2S)-2-methyl-4-[[4-(morpholin-4-yl)-2-(trifluoromethyl)phenyl]methyl]piperazine-1-carboxylate] | – | – | – | – | 25 to 75 | < 25 | 25 to 75
14 | Cc1cccc(-c2ccc(CN3CCN(C(=O)OC(C(F)(F)F)C(F)(F)F)CC3)c(C)c2)c1 [Example 11h, 1,1,1,3,3,3-hexafluoropropan-2-yl 4-[[2-methyl-4-(3-methylphenyl)phenyl]methyl]piperazine-1-carboxylate] | – | – | – | – | < 25 | < 25 | 25 to 75
15 | O=C(OC(C(F)(F)F)C(F)(F)F)N1CCN(Cc2cccc(Cl)c2C(=O)N2CCOCC2)CC1 [Example 9bf, 1,1,1,3,3,3-hexafluoropropan-2-yl 4-(3-chloro-2-(morpholine-4-carbonyl)benzyl)piperazine-1-carboxylate] | – | – | – | – | < 25 | < 25 | 25 to 75
16 | O=C(OC(C(F)(F)F)C(F)(F)F)N1CCN(Cc2ccc(C(=O)N3CCCC3)cc2Cl)CC1 [Example 9bd, 1,1,1,3,3,3-hexafluoropropan-2-yl 4-(2-chloro-4-(pyrrolidine-1-carbonyl)benzyl)piperazine-1-carboxylate] | – | – | – | – | 25 to 75 | < 25 | 25 to 75
17 | C[C@@H]1CN(Cc2ccc(N3CCOCC3)cc2Cl)CCN1C(=O)OC(C(F)(F)F)C(F)(F)F [Example 9am, 1,1,1,3,3,3-hexafluoropropan-2-yl(2R)-4-[[2-chloro-4-(morpholin-4-yl)phenyl]methyl]-2-methylpiperazine-1-carboxylate] | – | – | – | – | < 25 | < 25 | < 25
18 | Cc1cc(-c2ccncc2C)ccc1CN1CCN(C(=O)OC(C(F)(F)F)C(F)(F)F)CC1 [Example 11n, 1,1,1,3,3,3-hexafluoropropan-2-yl 4-[[2-methyl-4-(3-methylpyridin-4-yl)phenyl]methyl]piperazine-1-carboxylate] | – | – | – | – | > 75 | < 25 | > 75
19 | COc1ccc(-c2cc(CN3CCN(C(=O)OC(C(F)(F)F)C(F)(F)F)CC3)no2)cc1 [Example 10a, 1,1,1,3,3,3-hexafluoropropan-2-yl 4-((5-(4-methoxyphenyl)isoxazol-3-yl)methyl)piperazine-1-carboxylate] | – | – | – | – | 25 to 75 | < 25 | > 75
20 | Cc1cc(-c2cccnc2)ccc1CN1CCN(C(=O)OC(C(F)(F)F)C(F)(F)F)CC1 [Example 11l, 1,1,1,3,3,3-hexafluoropropan-2-yl 4-[[2-methyl-4-(pyridin-3-yl)phenyl]methyl]piperazine-1-carboxylate] | – | – | – | – | > 75 | < 25 | > 75
